In experiment [1] the target is T1, SYMRK (intracellular domain; SYMRK-WT) (Lotus japonicus, UniProt Q8LKX1, S877D/S885D/S889D/S893D).
T1 construct: intracellular kinase region with C-terminal alpha-I motif (intracellular domain modelled as 545-923); E. coli Rosetta 2, pAH10R7Sumo3C, tag cut with 3C, lambda-phosphatase dephosphorylated
The experiment in a line: nanoDSF thermal stability, […] nm fluorescence. The experiment is classed as binding. The conditions noted are these: 1 mM ATP, 5 mM MgCl2, pH 7.5, 15 min on ice, 25 to 95 °C at 1 °C/min. For orientation: DSF heats the sample and reads unfolding from a dye or from intrinsic fluorescence.

The target of experiment [2] is T2, SYMRK (intracellular domain; SYMRK-WT) (Lotus japonicus, UniProt Q8LKX1, S877A/S885A/S889A/S893A).
T2 construct: intracellular kinase region with C-terminal alpha-I motif (intracellular domain modelled as 545-923); E. coli Rosetta 2, pAH10R7Sumo3C, tag cut with 3C, lambda-phosphatase dephosphorylated
T2 sequence (Q8LKX1 entry or part of it S877A/S885A/S889A/S893A): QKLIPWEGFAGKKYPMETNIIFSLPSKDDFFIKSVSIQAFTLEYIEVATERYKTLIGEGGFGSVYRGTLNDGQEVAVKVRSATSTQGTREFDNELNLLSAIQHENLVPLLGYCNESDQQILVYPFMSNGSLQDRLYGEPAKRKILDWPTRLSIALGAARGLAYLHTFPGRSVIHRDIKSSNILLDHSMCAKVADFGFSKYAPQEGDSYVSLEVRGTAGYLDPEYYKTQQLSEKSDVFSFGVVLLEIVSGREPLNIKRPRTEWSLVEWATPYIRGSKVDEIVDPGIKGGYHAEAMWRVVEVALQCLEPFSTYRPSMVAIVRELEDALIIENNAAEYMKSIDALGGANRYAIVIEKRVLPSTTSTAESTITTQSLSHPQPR
The experiment in a line: nanoDSF thermal stability, […] nm fluorescence. The format is binding. The conditions noted are these: 1 mM ATP, 5 mM MgCl2, pH 7.5, 15 min on ice, 25 to 95 °C at 1 °C/min.

Experiment [3] has as its target T3, SYMRK (intracellular domain; SYMRK-WT) (Lotus japonicus, UniProt Q8LKX1).
T3 construct: intracellular kinase region with C-terminal alpha-I motif (intracellular domain modelled as 545-923); E. coli Rosetta 2, pAH10R7Sumo3C, tag cut with 3C, lambda-phosphatase dephosphorylated
T3 sequence (Q8LKX1 545-923 limits assumed): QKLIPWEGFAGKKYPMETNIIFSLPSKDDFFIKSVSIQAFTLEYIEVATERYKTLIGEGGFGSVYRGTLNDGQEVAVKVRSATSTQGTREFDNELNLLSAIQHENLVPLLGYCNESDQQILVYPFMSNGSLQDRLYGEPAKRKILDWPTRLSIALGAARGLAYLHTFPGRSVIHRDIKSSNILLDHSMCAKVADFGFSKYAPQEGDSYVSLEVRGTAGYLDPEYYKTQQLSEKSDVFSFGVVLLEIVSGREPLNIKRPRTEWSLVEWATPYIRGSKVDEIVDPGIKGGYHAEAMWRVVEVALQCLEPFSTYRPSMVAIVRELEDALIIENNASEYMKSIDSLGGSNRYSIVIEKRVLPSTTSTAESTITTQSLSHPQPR
The experiment in a line: nanoDSF thermal stability, […] nm fluorescence. Conditions: 1 mM ATP, 5 mM MgCl2, pH 7.5, 15 min on ice, 25 to 95 °C at 1 °C/min. The experiment is classed as binding.

Experiment [4] has as its target T2, SYMRK (intracellular domain; SYMRK-WT). The experiment in a line: radioactive kinase assay, SDS-PAGE autoradiography. The experiment is classed as biochemical. The conditions noted are these: labelled compound; 100 nCi, 5 mM MgCl2, MBP co-substrate and autophosphorylation, pH 7.5, room temperature, 1 h.
The target of experiment [5] is T3, SYMRK (intracellular domain; SYMRK-WT). Kind of experiment: radioactive kinase assay, SDS-PAGE autoradiography. The experiment is classed as biochemical. Conditions: labelled compound; 100 nCi, 5 mM MgCl2, MBP co-substrate and autophosphorylation, pH 7.5, room temperature, 1 h.

Each structure is given as a SMILES string.

T1 sequence (Q8LKX1 entry or part of it S877D/S885D/S889D/S893D): as the sequence (Q8LKX1 entry or part of it S877A/S885A/S889A/S893A) above, with A333D, A341D, A345D, A349D counted along it

Consider `Nc1ncnc2c1ncn2[C@@H]1O[C@H](COP(=O)(O)OP(=O)(O)OP(=O)(O)O)[C@@H](O)[C@H]1O` [ATP], for which the thermal stabilization result in experiment [1] was “we purified SYMRK-4D and found it to be monodisperse, thermostable, ATP binding, and catalytically active”; in experiment [2] it was “all proteins except the catalytically inactive SYMRK-K622E control showed ATP-binding capacity”; in experiment [3], “all proteins except the catalytically inactive SYMRK-K622E control showed ATP-binding capacity”.

As for `Nc1ncnc2c1ncn2[C@@H]1O[C@H](COP(=O)(O)OP(=O)(O)OP(=O)(O)O)[C@@H](O)[C@H]1O` [γ-32P-labeled ATP], the “radioactive kinase assay, SDS-PAGE autoradiography” value in experiment [4] is “SYMRK-4A and SYMRK-WT are active kinases capable of both autophosphorylation and transphosphorylation”; in experiment [5], “SYMRK-4A and SYMRK-WT are active kinases capable of both autophosphorylation and transphosphorylation”.

These data come from paper PMC10895371, “Phosphorylation of the alpha-I motif in SYMRK drives root nodule organogenesis” (Proceedings of the National Academy of Sciences of the …, 2024).
